Non-standard residues stand in square brackets, D forms with d. Residues, ends and D or L forms follow the SMILES beside them.
How the values were obtained:
ETB = ETB radio receptor assay *2, 125I-endothelin-1, guinea pig kidney crude membrane fraction; format: binding, Guinea pigs; conditions: relative activity, 37 °C, 90 minutes
Procedure: ETB Radio Receptor Assay *2
In the endothelin radio receptor assay, guinea pigs' kidneys were used. Guinea pigs (Std Hartrey, male 250 g, Japan SLC Ltd.) were made to have a cerebral concussion and sacrificed by bleeding from carotid arteries to pick up the kidneys and removed fat therefrom to prepare the kidneys. The obtained kidneys were sliced and homogenized by politron homogenizer in 20 ml of 50 mM Tris-HCl buffer [pH 7.4; 20 mM NaHCO3, 0.1 mM PMSF (Phenylmethylsulfonyl Fluoride), 1 mM EDTA (Ethylenediaminetetraacetic acid)] per one kidney. The homogenized kidney was applied to a centrifugation at 1,000 x g for 15 minutes and the supernatant was further applied to a centrifugation for 20 minutes at 30,000 x g. The resulting precipitate was twice washed with 50 mM Tris-HCl buffer (pH 7.4) containing 0.1 mM PMSF, 1 mM EDTA. The resultant was stored at -80 °C as a crude receptor membrane fraction and was used as the suspension in the following buffer when necessary.
740 Bq of ^125I-endothelin-1 (81.4 TBq/mmol, Du Pont, USA) as a radio ligand, the crude membrane fraction (2.1 µg protein) and samples were added to the following buffer. The reaction was performed at 37 °C, for 90 minutes in 0.2 ml of the buffer [50 mM Tris-HCl buffer (pH 7.4) containing 0.1 mM PMSF, 1 mM EDTA, 0.2% bovine serum albumin].
The reaction was stopped by fast filtration on a glass filter (GF/B, Wattman, USA) by Cell Harvestor (290 PHD, Cambridge-Technology, Great Britain), and the filter was three times washed with 50 mM Tris-HCl buffer (pH 7.4). Radio activity remained on the filter was assayed by a gamma counter.

[1] = molecular target: T1, endothelin receptor A (ETA) (Sus scrofa, UniProt Q29010); experiment: Assay of affinity for receptor (1): binding activity on ETA receptor, 125I-labeled endothelin-1, porcine heart membrane fraction; design: key: relative specific activity; reference cyclic pentapeptide ETA binding = 1.0; conditions: specific activity, taking the binding activity of control cyclo[-D-Glu-Ala-D-aIle-Leu-D-Trp-] on receptor A as 1.0, 25°C, 1 hour
T1 construct: A membrane fraction prepared from the porcine heart; from tissue; host or cells: porcine heart membrane fraction
T1 sequence (Q29010 21-427): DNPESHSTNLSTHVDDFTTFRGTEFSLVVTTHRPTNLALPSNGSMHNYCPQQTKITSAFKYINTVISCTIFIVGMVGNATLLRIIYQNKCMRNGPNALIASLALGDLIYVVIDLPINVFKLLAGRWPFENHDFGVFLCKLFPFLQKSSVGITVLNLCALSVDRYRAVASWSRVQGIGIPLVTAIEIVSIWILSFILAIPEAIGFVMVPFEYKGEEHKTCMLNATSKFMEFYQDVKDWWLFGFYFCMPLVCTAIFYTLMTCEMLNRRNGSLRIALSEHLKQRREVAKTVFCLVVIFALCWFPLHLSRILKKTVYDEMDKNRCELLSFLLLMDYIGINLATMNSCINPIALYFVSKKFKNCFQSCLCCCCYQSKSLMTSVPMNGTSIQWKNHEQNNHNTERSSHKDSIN
Procedure: Assay of Affinity for Receptor (1) ... Binding Activity on ETA Receptor
A membrane fraction prepared from the porcine heart was diluted to 0.15 mg/ml by using a buffer solution for assay, and 100 µl of the resulting suspension of the membrane fraction was poured into each assay tube to use for assay. To this suspension of the membrane fraction was added 2 µl of 5 nM ^125I-labeled endothelin-1 solution. Further, 3 µl of a test peptide solution was added thereto, followed by incubation at a temperature of 25°C for 1 hour. Then, the resulting suspension was diluted with 900 µl of the buffer solution for assay cooled with ice, and thereafter separated into a supernatant and a precipitate by centrifugation at 12,000 X g for 10 minutes. Cell membranes and an endothelin receptor A (ETA) embedded therein were contained in the precipitate, and radioactive iodine-labeled endothelin combined with the receptor was also recovered in the precipitate. Accordingly, the amount of radioactive iodine-labeled endothelin combined with the endothelin receptor A (ETA) was determined by measuring the amount of radioactive iodine contained in the precipitate with a gamma-ray counter. The cyclic pentapeptide described in Japanese Patent Application No. 2-413328/1990, cyclo[-D-Glu-Ala-D-aIle-Leu-D-Trp-], was used as a control compound. The numerical value of ETA shown in Table 1 is the value of specific activity, taking the binding activity of this cyclic pentapeptide on the receptor A as 1.0. The binding activity (IC50) of this cyclic pentapeptide on the ETA receptor is 2x10^-6 M.

SMILES | Binding Activity on ET Receptor (R. act.) ETB*2 (ETB) | Binding Activity on ET Receptor (R. act.) ETA [1]
CC(C)C[C@@H]1NC(=O)[C@@H](CC(C)C)NC(=O)[C@@H](CC(=O)O)NC(=O)[C@H](C)NC(=O)[C@@H](CC(=O)O)NC(=O)[C@@H](Cc2c[nH]c3ccccc23)NC1=O [Example 2, cyclo[-D-Asp-Ala-D-Asp-D-Leu-Leu-D-Trp-]] (cyclo(A[dD][dL]L[dW][dD])) | 3.1 | 3.7
CC(C)C[C@@H]1NC(=O)[C@@H](CC(C)C)NC(=O)[C@H](CCC(=O)O)NC(=O)[C@H](C)NC(=O)[C@@H](CC(=O)O)NC(=O)[C@@H](Cc2c[nH]c3ccccc23)NC1=O [Example 3, cyclo[-D-Asp-Ala-Glu-D-Leu-Leu-D-Trp-]] (cyclo(AE[dL]L[dW][dD])) | 23 | 7.9
CC(C)C[C@@H]1NC(=O)[C@@H](CC(C)C)NC(=O)[C@@H](CCC(=O)O)NC(=O)[C@H](C)NC(=O)[C@@H](CC(=O)O)NC(=O)[C@@H](Cc2c[nH]c3ccccc23)NC1=O [Example 4, cyclo[-D-Asp-Ala-D-Glu-D-Leu-Leu-D-Trp-]] (cyclo(A[dE][dL]L[dW][dD])) | 1.4 | 2.3
CC(C)C[C@@H]1NC(=O)[C@@H](CC(C)C)NC(=O)[C@H](C)NC(=O)CNC(=O)[C@@H](CC(=O)O)NC(=O)[C@@H](Cc2c[nH]c3ccccc23)NC1=O [Example 5, cyclo[-D-Asp-Gly-Ala-D-Leu-Leu-D-Trp-]] (cyclo(A[dL]L[dW][dD]G)) |  | 1.3
CC(C)C[C@@H]1NC(=O)[C@@H](CC(C)C)NC(=O)[C@H](C)NC(=O)[C@H](CC(=O)O)NC(=O)[C@@H](CC(=O)O)NC(=O)[C@@H](Cc2c[nH]c3ccccc23)NC1=O [Example 6, cyclo[-D-Asp-Asp-Ala-D-Leu-Leu-D-Trp-]] (cyclo(A[dL]L[dW][dD]D)) | 7.1 | 6.0
CC(C)C[C@@H]1NC(=O)[C@@H](CC(C)C)NC(=O)[C@H](C)NC(=O)[C@H](CCC(=O)O)NC(=O)[C@@H](CC(=O)O)NC(=O)[C@@H](Cc2c[nH]c3ccccc23)NC1=O [Example 7, cyclo[-D-Asp-Glu-Ala-D-Leu-Leu-D-Trp-]] (cyclo(A[dL]L[dW][dD]E)) | 7.1 | 6.5
CC(C)C[C@@H]1NC(=O)[C@@H](CC(C)C)NC(=O)[C@H](CC(=O)O)NC(=O)[C@@H](C)NC(=O)[C@@H](CC(=O)O)NC(=O)[C@@H](Cc2c[nH]c3ccccc23)NC1=O [Example 15, Cyclo[-D-Asp-D-Ala-Asp-D-Leu-Leu-D-Trp-]] (cyclo(D[dL]L[dW][dD][dA])) | 7.7 | 5.7
CC(C)C[C@@H]1NC(=O)[C@@H](CC(C)C)NC(=O)[C@H](CC(=O)O)NC(=O)[C@H]2CCCN2C(=O)[C@@H](CC(=O)O)NC(=O)[C@@H](Cc2c[nH]c3ccccc23)NC1=O [Example 24, Cyclo[-D-Asp-D-Pro-Asp-D-Leu-Leu-D-Trp-]] (cyclo(D[dL]L[dW][dD][dP])) |  | 1.7
CC(C)C[C@@H]1NC(=O)[C@@H](CC(C)C)NC(=O)CNC(=O)[C@H](C)NC(=O)[C@@H](CCC(=O)O)NC(=O)[C@@H](Cc2c[nH]c3ccccc23)NC1=O [Example 40, Cyclo[-D-Glu-Ala-Gly-D-Leu-Leu-D-Trp-]] (cyclo(AG[dL]L[dW][dE])) |  | 1.4
CC(C)C[C@H]1NC(=O)[C@H](CC(=O)O)NC(=O)[C@H](C)NC(=O)[C@@H](CC(=O)O)NC(=O)[C@@H](Cc2c[nH]c3ccccc23)NC(=O)[C@H](Cc2ccccc2)NC1=O [Example 57, Cyclo[-D-Asp-Ala-Asp-D-Leu-Phe-D-Trp-]] (cyclo(AD[dL]F[dW][dD])) | 2.0 | 

— EP0552417B1, “Cyclic peptides and use thereof” (priority 1991, dated 1993)
